Earlier results as cited in patent US20120108678A1, “BRANCHED COPOLYMERS, COMPOSITIONS AND USES” (UNILEVER PLC, priority 2009, published 2012).

water solubility (water-insoluble monomer examples) [% w/w] | Structure (SMILES) | Solubility in water w/w at 20° C.
– | C=C(C)C(=O)OCCO [2-Hydroxyethyl methacrylate] | 3.00 w/w
– | C=C(C)C(=O)O [Methacrylic acid] | Soluble
– | C=CC(=O)OCCO [2-Hydroxyethyl acrylate] | soluble
0.02 | C=Cc1ccccc1 [styrene] | –
– | C=CC(=O)OCC(C)O (centres unmarked) [2-Hydroxypropyl acrylate] | Soluble
